Laboratory results as given in US20030031723A1, “Formulation and method for preparation of rapid dispersion spheroids which can be heavily titrated” (priority 2001, published 2003).

Assay: quantity of water absorbed by the same mass (100 g) of excipients
Type: physicochemical
Description: Below are some examples supporting this statement, which test the quantity of water absorbed by the same mass (100 g) of excipients of different types: […]

In the case of `OC[C@H]1O[C@@H](O[C@H]2[C@H](O)[C@@H](O)C(O)O[C@@H]2CO)[C@H](O)[C@@H](O)[C@H]1O` (stereo partly shown) [Lactose], the “AMOUNT OF WATER ABSORBED PER 100 g OF EXCIPIENT” value is reported as 15 g.
